According to patent EP4631938A1, “NITROGEN-CONTAINING HETEROCYCLE WITH SEROTONIN RECEPTOR-BINDING ACTIVITY AND CARBOCYCLIC DERIVATIVE” (Shionogi & Co., Ltd, priority 2022, dated 2024):

Legend:
[1] = target: T1, human recombinant 5-HT2A receptor (Homo sapiens, UniProt P28223); assay: Test Example 1-2: 5-HT2A receptor binding inhibition test ([3H]-Ketanserin; non-specific ligand Ketanserin); details: [3H]-Ketanserin; non-specific binding with 500 µmol/L Ketanserin; room temperature (25°C), 1.5 hours; read-out: h 5-HT2A Ki
T1 construct: expressed in transfected cells; host or cells: Jump-In HEK cells (membrane preparation)
How it was run: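 Membranes expressing the receptor were incubated with [3H]-ketanserin and compound for 1.5 h at 25 °C, then filtered onto plates presoaked in 50 mmol/L Tris-HCl pH 7.4 and scintillation-counted. Non-specific binding was defined with 500 µmol/L unlabeled ketanserin. Ki was taken from dose-response curves, with Kd set for each membrane lot by Scatchard analysis.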

[2] = target: T2, human recombinant 5-HT2C receptor (Homo sapiens, UniProt P28335); assay: Test Example 2: 5-HT2C receptor binding inhibition test ([3H]-Mesulergine; non-specific ligand Serotonin HCl); details: human serotonin 5-HT2C receptor binding activity
T2 construct: expressed in transfected cells; host or cells: Jump-In HEK cells (membrane preparation)
T2 sequence (P28335 33-458): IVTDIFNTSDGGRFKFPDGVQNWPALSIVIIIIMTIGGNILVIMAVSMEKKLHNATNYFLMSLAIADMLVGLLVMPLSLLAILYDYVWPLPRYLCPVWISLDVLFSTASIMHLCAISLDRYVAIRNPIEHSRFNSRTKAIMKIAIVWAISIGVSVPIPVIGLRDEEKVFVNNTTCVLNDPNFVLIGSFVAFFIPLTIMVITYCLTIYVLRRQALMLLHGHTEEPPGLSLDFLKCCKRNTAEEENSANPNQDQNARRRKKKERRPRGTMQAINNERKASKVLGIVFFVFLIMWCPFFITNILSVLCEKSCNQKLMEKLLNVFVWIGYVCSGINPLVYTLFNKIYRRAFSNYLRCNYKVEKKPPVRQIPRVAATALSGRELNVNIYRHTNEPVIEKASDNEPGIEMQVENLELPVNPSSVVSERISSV
How it was run: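 Filtration binding to membranes bearing human 5-HT2C with [3H]-mesulergine, 2 h at 37°C; non-specific binding defined with 500 µmol/L serotonin HCl, total binding with vehicle. Inhibition rate computed from cpm; Ki derived from dose-response curve, with ligand Kd from Scatchard analysis of saturation binding.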

T1 sequence (P28223 whole entry): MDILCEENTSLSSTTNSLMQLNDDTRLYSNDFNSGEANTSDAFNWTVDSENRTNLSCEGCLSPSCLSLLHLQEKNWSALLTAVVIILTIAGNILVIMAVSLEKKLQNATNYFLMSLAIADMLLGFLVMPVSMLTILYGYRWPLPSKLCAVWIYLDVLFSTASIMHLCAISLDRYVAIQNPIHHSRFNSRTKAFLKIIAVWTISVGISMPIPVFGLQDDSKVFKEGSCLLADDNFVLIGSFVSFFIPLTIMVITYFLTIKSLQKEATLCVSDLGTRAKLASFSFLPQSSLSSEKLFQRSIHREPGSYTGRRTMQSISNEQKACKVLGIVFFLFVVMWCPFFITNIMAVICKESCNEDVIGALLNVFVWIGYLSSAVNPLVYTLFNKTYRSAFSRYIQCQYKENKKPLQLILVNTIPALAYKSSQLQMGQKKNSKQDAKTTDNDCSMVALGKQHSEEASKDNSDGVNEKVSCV

| SMILES | Ki [1] [nM] | Ki [2] [nM] |
| --- | --- | --- |
| Cc1nc(C)c(-c2cc(Nc3ncc(C(F)(F)F)cc3F)ncc2OCCO)c(C)n1 [Compound I-306] | 1.27 | 5.67 |
| Cn1ncc(Br)c1-c1cc(Nc2ccc(OCC(F)(F)F)cn2)ncc1OCCO [Compound I-307] | 0.221 | 0.715 |
| Cc1nc(C)c(-c2cc(Nc3ccc(Oc4ccc(F)cc4)cn3)ncc2OCCO)c(C)n1 [Compound I-308] | 0.575 | 9.45 |
| Cc1nc(C)c(-c2cc(Nc3ccc(-c4ccc(F)cc4)cn3)ncc2OCCO)c(C)n1 [Compound I-309] | 0.247 | 1.37 |
| Cc1nc(C)c(-c2cc(Nc3ccc(-c4ccc(Cl)cc4)cn3)ncc2OCCO)c(C)n1 [Compound I-310] | 0.194 | 0.608 |
| Cn1ncc(Cl)c1-c1cc(Nc2ncc(C(F)(F)F)cn2)ncc1OCCO [Compound I-311] | 0.432 | 6.41 |
| Cn1ncc(Cl)c1-c1cc(Nc2ncc(OC(F)(F)F)cn2)ncc1OCCO [Compound I-312] | 0.252 | 4.82 |
| Cn1ncc(Cl)c1-c1cc(Nc2ccc(OCC(F)(F)F)cn2)ncc1OCCO [Compound I-313] | 0.198 | 1.38 |
| Cc1nc(C)c(-c2cc(Nc3ccc(-c4ccc(C(F)(F)F)cn4)cn3)ncc2OCCO)c(C)n1 [Compound I-314] | 0.902 | 3.68 |
| Cc1nc(C)c(-c2cc(Nc3ccc(-c4ccc(C(F)(F)F)nc4)cn3)ncc2OCCO)c(C)n1 [Compound I-315] | 1.21 | 1.05 |
| Cc1nc(C)c(-c2cc(Nc3ncc(-c4ccc(F)cc4)cc3F)ncc2OCCO)c(C)n1 [Compound I-316] | 0.506 | 0.864 |
| Cc1nc(C)c(-c2cc(Nc3ccc(-c4ccc(F)cc4)cn3)ncc2O[C@H](C)CO)c(C)n1 [Compound I-317] | 0.453 | 6.92 |
| Cc1nc(C)c(-c2cc(Nc3ncc(-c4ccc(F)cc4)cc3C)ncc2OCCO)c(C)n1 [Compound I-318] | 0.575 | 1.04 |
| Cc1nc(C)c(-c2cc(Nc3ncc(-c4ccc(C(F)(F)F)cc4)cn3)ncc2OCCO)c(C)n1 [Compound I-319] | 0.65 | 2.02 |
| Cn1ncc(Cl)c1-c1cc(Nc2ccc(OCC(F)F)cn2)ncc1OCCO [Compound I-320] | 0.297 | 7.91 |
| Cn1ncc(Cl)c1-c1cc(Nc2ncc(OCC(F)F)cc2F)ncc1OCCO [Compound I-321] | 0.305 | 3.63 |
| Cn1ncc(Cl)c1-c1cc(Nc2ncc(OCC(F)(F)F)cc2F)ncc1OCCO [Compound I-322] | 0.414 | 1.3 |
| COCc1nc(C)c(-c2cc(Nc3ncc(Br)cc3Cl)ncc2OCCO)c(C)n1 [Compound I-323] | 2.14 | 2.81 |
| COCc1nc(C)c(-c2cc(Nc3ccc(OCc4ccccc4)cn3)ncc2OCCO)c(C)n1 [Compound I-324] | 0.421 | 8.52 |
| COCc1nc(C)c(-c2cc(Nc3ncc(-n4ccc(C(F)(F)F)n4)cc3Cl)ncc2OCCO)c(C)n1 [Compound I-325] | 1.6 | 1.17 |

| SMILES | Ki [1] [nM] | Ki [2] [nM] |
| --- | --- | --- |
| COCc1nc(C)c(-c2cc(Nc3ncc(-c4ccn(C(F)F)n4)cc3Cl)ncc2OCCO)c(C)n1 [Compound I-326] | 6.26 | 7.23 |
| COCc1nc(C)c(-c2cc(Nc3ncc(-n4cc(C(F)F)cn4)cc3Cl)ncc2OCCO)c(C)n1 [Compound I-327] | 2.4 | 2.69 |
| COCc1nc(C)c(-c2cc(Nc3ncc(-c4nc(C(F)(F)F)cs4)cc3Cl)ncc2OCCO)c(C)n1 [Compound I-328] | 1.1 | 0.499 |
| COCc1nc(C)c(-c2cc(Nc3ncc(-c4ncc(C(F)(F)F)s4)cc3Cl)ncc2OCCO)c(C)n1 [Compound I-329] | 0.896 | 0.282 |
| COCc1nc(C)c(-c2cc(Nc3ncc(-n4ccc(Cl)n4)cc3Cl)ncc2OCCO)c(C)n1 [Compound I-330] | 1.74 | 1.78 |
| CCc1coc(-c2cnc(Nc3cc(-c4c(C)nc(COC)nc4C)c(OCCO)cn3)c(Cl)c2)n1 [Compound I-331] | 1.91 | 1.66 |
| COCc1nc(C)c(-c2cc(Nc3ncc(OC4CC(F)(F)C4)cc3Cl)ncc2OCCO)c(C)n1 [Compound I-332] | 5.58 | 3.12 |
| COCc1nc(C)c(-c2cc(Nc3ncc(OCC(F)(F)C(F)F)cc3Cl)ncc2OCCO)c(C)n1 [Compound I-333] | 9.02 | 4.19 |
| COCc1nc(C)c(-c2nc(Nc3ccc(C(F)(F)F)cn3)c(F)cc2OCCO)c(C)n1 [Compound I-334] | 3.49 | 9.69 |
| COCc1nc(C)c(-c2cc(Nc3ncc(-c4ncc(C)s4)cc3Cl)ncc2OCCO)c(C)n1 [Compound I-335] | 1.18 | 1.87 |
| Cn1ncc(Br)c1-c1nc(Nc2ccc(C(F)(F)F)cc2)ncc1OCCO [Compound I-336] | 0.226 | 0.748 |
| Cn1ncc(Br)c1-c1nc(Nc2ccc(C(F)(F)F)cn2)ncc1OCCO [Compound I-337] | 0.313 | 7.18 |
| Cn1ncc(Br)c1-c1nc(Nc2ccc(C(F)(F)F)cc2F)ncc1OCCO [Compound I-338] | 0.223 | 0.765 |
| Cn1ncc(Br)c1-c1nc(Nc2ccc(Cl)cc2)ncc1OCCO [Compound I-339] | 0.217 | 2.52 |
| Cn1ncc(Br)c1-c1nc(Nc2ccc(Cl)cc2F)ncc1OCCO [Compound I-340] | 0.212 | 1.38 |
| Cc1cc(Cl)cnc1Nc1ccc(OCCO)c(-c2c(Br)cnn2C)c1 [Compound I-341] | 0.303 | 0.14 |
| Cn1ncc(Br)c1-c1nc(Nc2ccc(Cl)cc2Cl)ncc1OCCO [Compound I-342] | 0.256 | 1.88 |
| Cc1cc(Cl)ccc1Nc1ncc(OCCO)c(-c2c(Br)cnn2C)n1 [Compound I-343] | 0.184 | 2.42 |
| Cn1ncc(Br)c1-c1nc(Nc2ccc(Cl)c(Cl)c2)ncc1OCCO [Compound I-344] | 0.26 | 6.63 |
| Cn1ncc(Br)c1-c1nc(Nc2ccc(Cl)c(F)c2)ncc1OCCO [Compound I-345] | 0.257 | 3.12 |

| SMILES | Ki [1] [nM] | Ki [2] [nM] |
| --- | --- | --- |
| Cc1cc(OC(F)(F)F)ccc1Nc1ncc(OCCO)c(-c2c(Br)cnn2C)n1 [Compound I-346] | 0.24 | 1.7 |
| Cn1ncc(Br)c1-c1nc(Nc2ccc(OC(F)(F)F)cc2)ncc1OCCO [Compound I-347] | 0.262 | 1.08 |
| Cc1cc(Nc2ncc(OCCO)c(-c3c(Br)cnn3C)n2)ccc1Cl [Compound I-348] | 0.215 | 6.11 |
| Cn1ncc(Br)c1-c1nc(Nc2ccc(C(F)(F)F)nc2)ncc1OCCO [Compound I-349] | 0.254 | 47.7 |
| Cn1ncc(Br)c1-c1nc(Nc2ccc(Cl)c(C(F)(F)F)c2)ncc1OCCO [Compound I-350] | 0.204 | 6.51 |
| Cn1ncc(Br)c1-c1nc(Nc2ccc(C(F)(F)F)c(Cl)c2)ncc1OCCO [Compound I-351] | 0.242 | 1.77 |
| Cn1ncc(Br)c1-c1nc(Nc2ccc(C#N)cc2)ncc1OCCO [Compound I-352] | 0.202 | 5.99 |
| Cn1ncc(Br)c1-c1nc(Nc2ccc(OC(F)F)cc2)ncc1OCCO [Compound I-353] | 0.179 | 0.975 |
| Cn1ncc(Br)c1-c1nc(Nc2ccc(C#N)cc2F)ncc1OCCO [Compound I-354] | 0.319 | 8.53 |
| Cc1cc(C#N)ccc1Nc1ncc(OCCO)c(-c2c(Br)cnn2C)n1 [Compound I-355] | 0.398 | 8.2 |
| Cc1cnn(C)c1-c1nc(Nc2ccc(OC(F)(F)F)cc2)ncc1OCCO [Compound I-356] | 0.163 | 7.79 |
| Cc1nc(C)c(-c2nc(Nc3ccc(OC(F)(F)F)cc3)ncc2OCCO)c(C)n1 [Compound I-357] | 0.635 | 3.07 |
| O=C1NCc2c1cccc2-c1cc(Nc2ncc(C(F)(F)F)cc2F)ncc1OCCO [Compound I-358] | 0.603 | 5.78 |
| O=C1OCc2c1cccc2-c1cc(Nc2ncc(C(F)(F)F)cc2F)ncc1OCCO [Compound I-360] | 1.22 | 54.8 |
| Cc1nc(C)c(-c2cc(Nc3ncc(C(F)(F)F)cc3F)ncc2O[C@H](C)CO)c(C)n1 [Compound I-361] | 2.4 | 18.3 |
| C[C@H](CO)Oc1cnc(Nc2ncc(C(F)(F)F)cc2F)cc1-c1cccc2c1CNC2=O [Compound I-362] | 0.924 | 25.2 |
| Cc1nc(C)c(-c2nc(Nc3ccc(-c4ccc(C(F)(F)F)nc4)cn3)c(F)cc2OCCO)c(C)n1 [Compound I-363] | 2.32 | 2.76 |
| Cc1nc(C)c(-c2nc(Nc3ccc(-c4ccc(C(F)(F)F)nc4)cn3)c(F)cc2O[C@H](C)CO)c(C)n1 [Compound I-364] | 3.34 | 12.2 |
| COCc1nc(C)c(-c2nc(Nc3ccc(-c4ccc(C(F)(F)F)nc4)cn3)c(F)cc2OCCO)c(C)n1 [Compound I-365] | 4.65 | 1.98 |
